The text below walks through data of US10618903B2, “Heteroaryl substituted aminopyridine compounds” (BRISTOL-MYERS SQUIBB COMPANY, priority 2015, dated 2020).

pEC50, pIC50: −log10 of the molar value.

For one data set, the target named is IRAK4 (Homo sapiens (Human), UniProt Q9NWZ3). The data set can be described thus: IRAK4 Inhibition Assay. Format: biochemical. The conditions noted are these: ATP 500 μM; IRAK4 0.6 nM. The method, boiled down: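 Mobility-shift kinase assay: 0.6 nM IRAK4, 500 μM ATP, 1.5 μM fluorescent peptide, 60 min, room temperature. Percent inhibition was normalised between enzyme-free and DMSO-only wells.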

A further data set can be described thus: Caco Permeability Assay. Format: in vitro ADME. The conditions noted are these: human, Caco-2, Caco-2 cells, 3 μM compound. On the technique in general: Caco-2 monolayers are a common model of the intestinal barrier.
The subject of data set [1] is IL-6 levels in human whole blood stimulated with a TLR2 agonist. Put plainly: IRAK4 Whole Blood Assay (lipoteichoic acid/TLR2-stimulated IL-6). Format: cell-based. The conditions noted are these: lipoteichoic acid 10 μg/mL, IL-6 readout. The method, boiled down: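 IL-6 was quantified by cytometric bead assay in supernatants of human blood (ACD-A) stimulated for 5 h with lipoteichoic acid at 10 μg/mL final. Compound exposure preceded stimulation for 60 min at 37 °C, 5% CO2.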

Chain of IRAK4 (Q9NWZ3 whole entry): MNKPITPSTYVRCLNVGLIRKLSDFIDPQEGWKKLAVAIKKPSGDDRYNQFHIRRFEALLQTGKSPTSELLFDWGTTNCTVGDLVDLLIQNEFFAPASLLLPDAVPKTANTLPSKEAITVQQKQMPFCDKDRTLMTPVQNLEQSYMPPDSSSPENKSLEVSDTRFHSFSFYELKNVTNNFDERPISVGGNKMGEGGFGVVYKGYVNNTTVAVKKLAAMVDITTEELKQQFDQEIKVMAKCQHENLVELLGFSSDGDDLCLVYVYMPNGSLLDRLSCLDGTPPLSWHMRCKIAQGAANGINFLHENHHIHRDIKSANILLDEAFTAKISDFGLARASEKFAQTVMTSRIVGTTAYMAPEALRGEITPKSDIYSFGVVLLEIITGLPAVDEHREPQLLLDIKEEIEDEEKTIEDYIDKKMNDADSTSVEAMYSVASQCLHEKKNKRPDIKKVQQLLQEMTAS

The term pIC50 denotes the negative decadic logarithm of the IC50, by convention in mol/L. For orientation: Papp means the rate of passage across a membrane or cell layer, normalised by area and donor concentration. By pEC50 is commonly meant the EC50 on a negative log10 scale, so that one unit is a factor of ten. Lower therefore signals a large EC50. As to `CC(C)(O)[C@H](F)CNC(=O)c1cnc(-c2cnn3cc(Cl)cnc23)cc1Nc1cnn(C2CCC2)c1` [Example 250, (R)-6-(6-chloropyrazolo[1,5-a]pyrimidin-3-yl)-4-((1-cyclobutyl-1H-pyrazol-4-yl)amino)-N-(2-fluoro-3-hydroxy-3-methylbutyl)nicotinamide], the pIC50 on IRAK4 is 9.00. The same compound had a Papp at 2 h, 3 µM in “Caco Permeability Assay” of 6.6 ×10⁻⁶ cm/s. In data set [1] (Homo sapiens), this compound had a pEC50 of 6.70.

`CCNc1cc(-c2cnn3cc(Cl)cnc23)ncc1C(=O)NC[C@@H](F)C(C)(C)O` [Example 56, (R)-6-(6-chloropyrazolo[1,5-a]pyrimidin-3-yl)-4-(ethylamino)-N-(2-fluoro-3-hydroxy-3-methylbutyl) nicotinamide]: the pIC50 on IRAK4 was 8.30. This compound also showed a Papp at 2 h, 3 µM in the data set “Caco Permeability Assay” of 14.3 ×10⁻⁶ cm/s. In data set [1] (Homo sapiens), this compound showed a pEC50 of 6.44.

On to `CC(C)Nc1cc(-c2cnn3cc(C#N)cnc23)ncc1C(=O)NCCC(C)(C)C#N` [Example 169, N-(3-cyano-3-methylbutyl)-6-(6-cyanopyrazolo[1,5-a]pyrimidin-3-yl)-4-(isopropylamino)nicotinamide], for which the pIC50 on IRAK4 was 8.10. In “Caco Permeability Assay”, this compound showed a Papp at 2 h, 3 µM of 14.2 ×10⁻⁶ cm/s. In data set [1] (Homo sapiens), this compound gave a pEC50 of 6.19.

Take `CC(C)(O)[C@H](F)CNC(=O)c1cnc(-c2cnn3cc(Cl)cnc23)cc1NCCCO` [Example 164, (R)-6-(6-chloropyrazolo[1,5-a]pyrimidin-3-yl)-N-(2-fluoro-3-hydroxy-3-methylbutyl)-4-((3-hydroxypropyl)amino)nicotinamide]: the pIC50 at IRAK4 was 7.96. Further, the Papp at 2 h, 3 µM in the data set “Caco Permeability Assay” was less than 1.5 ×10⁻⁶ cm/s. Besides, in data set [1] (Homo sapiens), the pEC50 was 6.57.

Take `CC(C)Nc1cc(-c2cnc3cccnn23)ncc1C(=O)NC[C@@H](F)C(C)(C)O` [Example 177, (R)—N-(2-fluoro-3-hydroxy-3-methylbutyl)-6-(imidazo[1,2-b]pyridazin-3-yl)-4-(isopropylamino)nicotinamide]: the pIC50 at IRAK4 was 8.00. The compound also gave a Papp at 2 h, 3 µM in “Caco Permeability Assay” of 12.6 ×10⁻⁶ cm/s. Also, the pEC50 in data set [1] was 6.06.

For `CC(C)(O)[C@H](F)CNC(=O)c1cnc(-c2cnc3cc(Cl)cnn23)cc1Nc1cnn(C(F)F)c1` [Example 270, (R)-6-(7-chloroimidazo[1,2-b]pyridazin-3-yl)-4-((1-(difluoromethyl)-1H-pyrazol-4-yl)amino)-N-(2-fluoro-3-hydroxy-3-methylbutyl) nicotinamide], the pIC50 at IRAK4 was 8.52. In the data set “Caco Permeability Assay”, this compound displayed an apparent permeability (Papp) at 2 h, 3 µM of 7.8 ×10⁻⁶ cm/s. Further, the pEC50 in data set [1] (Homo sapiens) is 6.09.

As to `CC(C)(O)[C@H](F)CNC(=O)c1cnc(-c2cnc3cc(Cl)cnn23)cc1NC1CCOCC1` [Example 143, (R)-6-(7-chloroimidazo[1,2-b]pyridazin-3-yl)-N-(2-fluoro-3-hydroxy-3-methylbutyl)-4-((tetrahydro-2H-pyran-4-yl)amino)nicotinamide], the pIC50 on IRAK4 is 8.70. Further, the apparent permeability (Papp) at 2 h, 3 µM in the data set “Caco Permeability Assay” stood at 8.2 ×10⁻⁶ cm/s. In addition, in data set [1] (Homo sapiens), the negative-log EC50 (pEC50) was 5.97.

Regarding `CC(C)(O)[C@H](F)CNC(=O)c1cnc(-c2cnc3cc(C#N)cnn23)cc1Nc1cnn(C2CC2)c1` [Example 284, (R)-6-(7-cyanoimidazo[1,2-b]pyridazin-3-yl)-4-((1-cyclopropyl-1H-pyrazol-4-yl)amino)-N-(2-fluoro-3-hydroxy-3-methylbutyl)nicotinamide], on IRAK4, the pIC50 is 8.70. The apparent permeability coefficient (Papp) at 2 h, 3 µM in the data set “Caco Permeability Assay” was less than 1.5 ×10⁻⁶ cm/s. This compound also showed a pEC50 in data set [1] (Homo sapiens) of 6.68.

As for `CC(C)(O)[C@H](F)CNC(=O)c1cnc(-c2cnn3cc(Cl)cnc23)cc1Nc1cnn(C2CCOCC2)c1` [Example 52, (R)-6-(6-chloropyrazolo[1,5-a]pyrimidin-3-yl)-N-(2-fluoro-3-hydroxy-3-methylbutyl)-4-((1-(tetrahydro-2H-pyran-4-yl)-1H-pyrazol-4-yl)amino)nicotinamide], the pIC50 on IRAK4 was 8.52. In addition, in the data set “Caco Permeability Assay”, the Papp at 2 h, 3 µM was less than 1.5 ×10⁻⁶ cm/s. In data set [1] (Homo sapiens), this compound gave a negative-log EC50 (pEC50) of 6.55.

For `CC(C)(O)CCNC(=O)c1cnc(-c2cnn3cc(Cl)cnc23)cc1Nc1cnn(CC(F)F)c1` [Example 253, 6-(6-chloropyrazolo[1,5-a]pyrimidin-3-yl)-4-((1-(2,2-difluoroethyl)-1H-pyrazol-4-yl)amino)-N-(3-hydroxy-3-methylbutyl)nicotinamide], at IRAK4, the pIC50 was 9.00. The Papp at 2 h, 3 µM in the data set “Caco Permeability Assay” was found to be 4.8 ×10⁻⁶ cm/s. The same compound gave a pEC50 in data set [1] (Homo sapiens) of 6.80.

`CC(C)(O)[C@H](F)CNC(=O)c1cnc(-c2cnn3cc(Cl)cnc23)cc1N[C@@H]1COC[C@H]1F` [Example 44, 6-(6-chloropyrazolo[1,5-a]pyrimidin-3-yl)-N—((R)-2-fluoro-3-hydroxy-3-methylbutyl)-4-(((3R,4S)-4-fluorotetrahydrofuran-3-yl)amino)nicotinamide]: the pIC50 at IRAK4 is 8.15. The compound also gave a Papp at 2 h, 3 µM in “Caco Permeability Assay” of 5.3 ×10⁻⁶ cm/s. This compound also had a pEC50 in data set [1] (Homo sapiens) of 5.56.

Regarding `CC(C)Nc1cc(-c2cnc3cc(C#N)cnn23)ncc1C(=O)NCCc1ccccn1` [Example 216, 6-(7-cyanoimidazo[1,2-b]pyridazin-3-yl)-4-(isopropylamino)-N-(2-(pyridin-2-yl)ethyl)nicotinamide], on IRAK4, the pIC50 was 8.10. Moreover, the Papp at 2 h, 3 µM in “Caco Permeability Assay” came to 23.9 ×10⁻⁶ cm/s. Moreover, in data set [1] (Homo sapiens), the pEC50 was 6.51.

As to `CC(C)Nc1cc(-c2cnc3cc(C#N)cnn23)ncc1C(=O)NCCC1(O)CCCC1` [Example 217, 6-(7-cyanoimidazo[1,2-b]pyridazin-3-yl)-N-(2-(1-hydroxycyclopentyl)ethyl)-4-(isopropylamino)nicotinamide], the pIC50 at IRAK4 was 8.70. For the same compound, the Papp at 2 h, 3 µM in the data set “Caco Permeability Assay” turned out to be 25.6 ×10⁻⁶ cm/s. The compound further gave a negative logarithm of the EC50 (pEC50) in data set [1] (Homo sapiens) of 6.52.

Regarding `CC(C)Nc1cc(-c2cnn3cc(Cl)cnc23)ncc1C(=O)NCC(F)C1(O)COC1` (stereo not drawn) [Example 37, 6-(6-chloropyrazolo[1,5-a]pyrimidin-3-yl)-N-(2-fluoro-2-(3-hydroxyoxetan-3-yl)ethyl)-4-(isopropylamino)nicotinamide], at IRAK4, the pIC50 was 8.22. This compound yielded a Papp at 2 h, 3 µM in “Caco Permeability Assay” of 4.8 ×10⁻⁶ cm/s. In addition, in data set [1] (Homo sapiens), the pEC50 was 6.15.

As for `CC(C)(O)[C@H](F)CNC(=O)c1cnc(-c2cnn3cc(Cl)cnc23)cc1NC1CCCC1` [Example 67, (R)-6-(6-chloropyrazolo[1,5-a]pyrimidin-3-yl)-4-(cyclopentylamino)-N-(2-fluoro-3-hydroxy-3-methylbutyl)nicotinamide], the pIC50 at IRAK4 is 8.70. Moreover, the Papp at 2 h, 3 µM in “Caco Permeability Assay” turned out to be 18.4 ×10⁻⁶ cm/s. Further, in data set [1] (Homo sapiens), the pEC50 is 5.51.

For `CC(C)Cn1cc(Nc2cc(-c3cnn4cc(Cl)cnc34)ncc2C(=O)NC[C@@H](F)C(C)(C)O)cn1` [Example 247, (R)-6-(6-chloropyrazolo[1,5-a]pyrimidin-3-yl)-N-(2-fluoro-3-hydroxy-3-methylbutyl)-4-((1-isobutyl-1H-pyrazol-4-yl)amino)nicotinamide], the pIC50 on IRAK4 is 8.70. For the same compound, in “Caco Permeability Assay”, the Papp at 2 h, 3 µM was determined as 8.1 ×10⁻⁶ cm/s. Besides, the pEC50 in data set [1] (Homo sapiens) was 6.44.

For the compound `CC(C)(F)[C@H](F)CNC(=O)c1cnc(-c2cnc3cc(Cl)cnn23)cc1Nc1cnn(CC(F)F)c1` [Example 263, (R)-6-(7-chloroimidazo[1,2-b]pyridazin-3-yl)-N-(2,3-difluoro-3-methylbutyl)-4-((1-(2,2-difluoroethyl)-1H-pyrazol-4-yl)amino)nicotinamide], on IRAK4, the pIC50 is 8.70. For the same compound, the Papp at 2 h, 3 µM in “Caco Permeability Assay” turned out to be 21.3 ×10⁻⁶ cm/s. This compound also had a pEC50 in data set [1] (Homo sapiens) of 6.52.

As for `CC(C)Nc1cc(-c2cnn3cc(C#N)cnc23)ncc1C(=O)N[C@H]1CC[C@H](C(C)(C)O)CC1` [Example 104, 6-(6-cyanopyrazolo[1,5-a]pyrimidin-3-yl)-N-((1r,4r)-4-(2-hydroxypropan-2-yl)cyclohexyl)-4-(isopropylamino)nicotinamide], the pIC50 on IRAK4 was 8.15. The compound further displayed a Papp at 2 h, 3 µM in the data set “Caco Permeability Assay” of 16.2 ×10⁻⁶ cm/s. For the same compound, the pEC50 in data set [1] (Homo sapiens) was 6.10.

Turning to `CC[C@H](F)CNc1cc(-c2cnn3cc(Cl)cnc23)ncc1C(=O)NC[C@@H](F)C(C)(C)O` [Example 158, 6-(6-chloropyrazolo[1,5-a]pyrimidin-3-yl)-N—((R)-2-fluoro-3-hydroxy-3-methylbutyl)-4-(((S)-2-fluorobutyl)amino)nicotinamide], the pIC50 at IRAK4 was 8.30. Moreover, the Papp at 2 h, 3 µM in “Caco Permeability Assay” stood at 14.8 ×10⁻⁶ cm/s. In data set [1] (Homo sapiens), the pEC50 was 6.06.

As to `CC(C)(O)[C@H](F)CNC(=O)c1cnc(-c2cnn3cc(C#N)cnc23)cc1NC1CCOCC1` [Example 90, (R)-6-(6-cyanopyrazolo[1,5-a]pyrimidin-3-yl)-N-(2-fluoro-3-hydroxy-3-methylbutyl)-4-((tetrahydro-2H-pyran-4-yl)amino)nicotinamide], the pIC50 on IRAK4 is 8.40. This compound registered a Papp at 2 h, 3 µM in “Caco Permeability Assay” of 2.8 ×10⁻⁶ cm/s. In data set [1] (Homo sapiens), the pEC50 is 6.40.

Take `CC(C)(O)[C@H](F)CNC(=O)c1cnc(-c2cnc3cc(Cl)cnn23)cc1NC1CC1` [Example 144, (R)-6-(7-chloroimidazo[1,2-b]pyridazin-3-yl)-4-(cyclopropylamino)-N-(2-fluoro-3-hydroxy-3-methylbutyl)nicotinamide]: on IRAK4, the negative logarithm of the IC50 (pIC50) is 8.52. The compound further returned a Papp at 2 h, 3 µM in the data set “Caco Permeability Assay” of 13.4 ×10⁻⁶ cm/s. The pEC50 in data set [1] (Homo sapiens) is 6.64.

For `CC[C@@H](C)Nc1cc(-c2cnn3cc(C#N)cnc23)ncc1C(=O)NC[C@@H](F)C(C)(C)O` [Example 97, 4-(((R)-sec-butyl)amino)-6-(6-cyanopyrazolo[1,5-a]pyrimidin-3-yl)-N—((R)-2-fluoro-3-hydroxy-3-methylbutyl)nicotinamide], on IRAK4, the pIC50 was 8.40. Also, the Papp at 2 h, 3 µM in “Caco Permeability Assay” was found to be 8 ×10⁻⁶ cm/s. In data set [1] (Homo sapiens), this compound gave a negative-log EC50 (pEC50) of 5.80.
